According to patent publication US20040044304A1, “Local drug delivery using photosensitizer-mediated and electromagnetic radiation enhanced vascular permeability” (priority 2002, published 2004):

System: blood vessels within the dorsal window chamber
Format: in vivo, Syrian golden hamsters
Conditions: 150 kD FITC-Dextran conjugate; fluorescence microscopy
Text: Syrian golden hamsters (Charles River Laboratories, Kingston, N.Y.) weighing between 60-70 gram were surgically implanted with titanium back-pack window chambers as described ([…] et al., 1980; Colantuoni et al., 1984; […] et al., 1994). Prior to the surgical procedure, the dorsal surface of the mouse was shaved with electric clippers (Sunbeam Oster 2-Speed, 150 Cadillac Lane, McMinnville, Tenn., 37110) and then the shaved skin covered in a depilatory cream (Nair, Carter Products, New York, N.Y., 10105) for 10 minutes to remove the remaining hair. A dorsal skin fold consisting of two layers of skin and muscle tissue was then sandwiched between two opposing titanium frames (Campus Research Machine Shop, University of California, San Diego 9500 Gilman Drive, La Jolla, Calif.) with a 15 mm circular opening in each. Layers of skin and muscle fascia were separated from the sub-cutaneous tissue, and removed until a thin monolayer of muscle and one layer of intact skin remained. A coverglass (Type Circle 1, Part #12-545-80 sourced from Fisher Scientific, 2761 Walnut Avenue, Tustin, Calif., 92780) held by an expansion ring in the circular window of one titanium frame was then placed on the exposed tissue to allow direct microscopic visualization of the vasculature. The window in the second opposing titanium frame was left open exposing the intact skin. Two days following the implantation of the titanium chamber, an in-dwelling PE10 catheter (VVR Scientific, Westchester, Pa.) was implanted in the carotid artery. The catheter tubing was passed sub-cutaneously from the ventral to the dorsal side of the neck, and exteriorized through the skin at the base of the chamber. The patency of the catheter was ensured by daily flushing of the in-dwelling implanted tip with 0.005-0.01 ml of heparinized saline (40 IU/ml). The heparin was sourced from Upjohn Co., 100 Route […], Prepack, N.J., 07977, and the saline from Abbott Laboratories, North Chicago, Ill., 60064. Microvascular observations using an intra-vital microscope were not undertaken until at least 4 days post-chamber implantation to mitigate against post-surgical trauma, and to confirm that blood vessels within the chamber were functioning and intact and patent. A chamber was considered suitable for subsequent studies if microscopic examination of the preparation met the following criteria (as applied in […] et al., 1994): The intra-vital microscopic studies were undertaken on un-sedated animals held in a Plexiglass tube (Campus Research Machine Shop, University of California, San Diego 9500 Gilman Drive, La Jolla, Calif.) from which the window chamber sandwich protruded horizontally, allowing visualization of the chamber on the microscope stage. The Plexiglass tube acted to restrain the animals without impeding respiration. The intra-vital microscopy was performed using a Leitz Ortholux II (McBain Instruments, Inc., 9601 […] Avenue, Chatsworth, Calif., 91311) fitted with a Leitz Wetzlar 25× saline immersion objective lens, 0.6 numerical aperture (McBain Instruments, Inc., 9601 […] Avenue, Chatsworth, Calif., 91311), a Leitz Wetzlar 10× dry Planfluotar lens, 0.3 numerical aperture (McBain Instruments, Inc., 9601 […] Avenue, Chatsworth, Calif., 91311) and a Leitz Wetzlar 4× EF dry lens, 0.12 numerical aperture (McBain Instruments, Inc., 9601 […] Avenue, Chatsworth, Calif., 91311). A 100 Watt Hg light source (Olympus Corporation, 2 Corporate Center Drive, Melville, N.Y., 11747-3157) was used for both trans- and epi-illumination. For the trans-illumination studies the light was filtered using a 420 nm blue filter which selectively passed light in the region of the maximum absorbance band of hemoglobin, causing the red blood cells to appear as dark objects against a gray background. In addition, a heat filter was placed in the light path prior to the condenser to prevent hyperthermic effects on the tissue being examined.

Substance: fluorescein diisothiocyanate dextran [FITC-Dextran, reference compound]
- Retention of the molecule in the treated tissue field following PhotoPoint-induced release from the vasculature: at least 48 hrs
